# Earlier results in patent US6365621B1, “Remedies or preventives for intractable epilepsy” (Pharmaceutical Co., Ltd., priority 1998, dated 2002).
# System: kainate-induced amygdala seizures
# Conditions: high concentration; cited from earlier work
structure (smiles),measurement,value
NS(=O)(=O)Cc1noc2ccccc12 [zonisamide],Suppression of status epilepticus of kainate-induced amygdala seizure in acute phase,proven suppression effect
